# Assay results published in patent US20110117168A1, “METHODS AND COMPOSITIONS FOR SOFT TISSUE REPAIR” (AFFINERGY, INC., priority 2009, published 2011).
# Ends that are not written are not given here. spacer = not defined here
# Legend:
# human dermal fibroblasts = experiment: Fibroblast binding to peptide-modified collagen coated plates ([…]-GLO); format: cell-based
# Method: The experiment was performed according to the following procedure. Cell-binding peptide (SEQ ID NO: 4) was covalently attached to soluble collagen as described herein at Example 7. 96-well plates were coated with various amounts of unmodified or the peptide-modified collagen (177 μmol peptide/g collagen) over night at 4° C. Unbound collagen was removed and the plates were blocked for 1 h. After washing, 5,000 human dermal fibroblasts were added per well in serum-free medium for 30 min at 37° C. The plates were washed, and bound cells were detected with […]-GLO (PROMEGA) using a luminometer. At 0.0025 μg collagen, fibroblast binding was increased 11-fold for the peptide-modified collagen compared to unmodified collagen (see FIG. 28).
# HUVECs [1] = experiment: Retention of HUVECs under shear stress on collagen-coated cover-slips; format: cell-based, human
# Method: The ability of the collagen modified with endothelial cell binding peptide SEQ ID NO: 4 to retain HUVECs under shear stress was analyzed as follows. Glass cover-slips were coated with peptide conjugated collagen or unmodified collagen and seeded with HUVECs. Coverslips were secured in a polycarbonate slide with six 1 cm diameter wells enabling simultaneous testing of materials. A closed loop peristaltic pump was used to expose the samples to flow conditions for 30 minutes at laminar flow rates up to 12 dynes/cm^2 in PBS containing 2% FBS. The number of cells retained on the cover slip was determined using […]-GLO (INVITROGEN) and a luminometer.
# HUVECs [2] = experiment: HUVEC capture and retention on peptide-modified collagen coated 96-well plates ([…]-GLO); format: cell-based, human
# Method: After washing, 10,000 HUVECs were added per well in serum free medium for 30 min at 37° C. The plates were washed 3 times with PBS containing 2% FBS, and captured cells were detected with […]-GLO (INVITROGEN) using a luminometer and a standard curve. […] For FIG. 21B, the collagen was extracted in gel loading buffer, separated by PAGE, and total protein was stained with SIMPLYBLUE (INVITROGEN). […] Plates with captured HUVECs were prepared as described in FIG. 20A. […]
# HUVECs [3] = experiment: Endothelial cell phenotype and anti-thrombogenic protein expression on peptide-modified collagen; format: cell-based, human; conditions: HUVECs cultured 24 hours; t-PA and 6-keto Prostaglandin F1a ELISA, flow cytometry
# Method: Once immobilized on a vascular graft, endothelial cells must retain their characteristic properties of promoting endothelialization. Therefore, the phenotype, viability, and anti-thrombogenic protein expression profiles were evaluated for endothelial cells in the presence of collagen modified with the endothelial cell binding peptide SEQ ID NO: 4 (generated according to Example 7 using BS^3 reagent). […] Specifically, HUVECs were plated on SEQ ID NO: 4 peptide-modified collagen, collagen with 10 μM free SEQ ID NO: 4 peptide or collagen alone for 24 hours. Flow cytometry was performed using a BD […], and ELISAs were performed according to manufacturers instructions. (FIGS. 22A & 22B). Tissue-type Plasminogen Activator (t-PA) and 6-keto Prostaglandin F1a protein expression levels secreted in this assay are aligned with other reports on cultured HUVECS (Kimura and Yokoi-Hayashi, Biochim Biophys Acta, 1996, 1310:1-4; Merhi-Soussi et al., J Leukoc Biol, 2000, 68:881-9).
# HUVECs [4] = experiment: HUVEC colonization and proliferation on peptide-modified collagen; format: cell-based, human; conditions: 7,000 HUVECs, 48 hours at 37° C.
# Method: In 96-well plates 7,000 HUVECs were plated on peptide-modified soluble collagen or unmodified collagen for 48 hours at 37° C. Plates were removed and washed and the remaining attached cells were detected using […]-GLO on a luminometer.
# ECFCs = experiment: Capture of ECFCs in flow on collagen-coated coverslips (parallel plate flow chamber); format: cell-based, human; conditions: 2×10^6 ECFC circulated for 2 h at 37° C.
# Method: The ability of the collagen modified with endothelial cell binding peptide SEQ ID NO: 4 to capture ECFCs in flow was analyzed as follows. Glass coverslips were coated with unmodified collagen or cell binding peptide modified-collagen and mounted in a polycarbonate parallel plate flow chamber. PBS/10% FBS was circulated through a closed 150 ml system to block the coverslips. Approximately 2×10^6 ECFC were injected into the system and were circulated for 2 h at 37° C. Coverslips were washed in PBS to remove loosely adhering cells, the remaining cells on the coverslips were lysed in CELLTITERGLO (INVITROGEN, CA), and the cells enumerated by luminescence against a standard curve.
# human MSCs = experiment: Capture of MSCs from a mixed cell population with peptide on CELLECTION magnetic beads; format: cell-based; conditions: starting mixture 38% IM9, 56% U937, 4% MSC
# Text: In this experiment, biotinylated cell binding peptide, SEQ ID NO: 16, was attached to CELLECTION magnetic beads. The CELLECTION beads have streptavidin coupled to a magnetic particle through a DNA linker. Three different cell types, human MSCs, IM-9, and U937 cells were differentially labeled with […] dye and mixed in a ratio such that the MSCs represented ˜4% of the starting cell mixture (the percentage of each cell type in the starting mixture was 38% IM9, 56% U937, and 4% MSC). The cell binding peptide, SEQ ID NO: 16, was biotinylated as described herein at Example 2, as was a general cell binding peptide for use as a control peptide in the experiment. Magnetic particles with no peptide attached, as well as magnetic beads having attached either the cell binding peptide, SEQ ID NO: 16, or the control peptide were tested for their ability to capture human MSCs. The starting cell mixture was incubated with magnetic beads having either attached peptide or no peptide, the beads were washed, and the captured cells were released from the beads by DNase treatment. The cells were measured by flow cytometry histograms shown in 18A-18C. The magnetic beads without peptide captured little or no cells (FIG. 18B). The magnetic beads with attached cell binding peptide SEQ ID NO: 16 captured a cell population that was 96% MSCs (FIG. 18C).
"fibroblast binding increase compared to unmodified collagen (human dermal fibroblasts; 0.0025 μg collagen, 5,000 human dermal fibroblasts, 30 min at 37° C.)",fibroblast binding at higher concentrations of collagen (human dermal fibroblasts; data not shown),Substance,"cells captured versus unmodified collagen (HUVECs [1]; HUVECs, 30 minutes, laminar flow up to 12 dynes/cm^2)","effect of shear stress on cell capture (HUVECs [1]; laminar flow up to 12 dynes/cm^2, 30 minutes)",HUVECs retained versus unmodified collagen after agitation (HUVECs [2]; 1 hour with agitation in PBS containing 2% FBS),"increase in cell retention over unmodified collagen (HUVECs [2]; 10,000 HUVECs per well, serum free medium, 30 min at 37° C.)",endothelial cell phenotype and anti-thrombogenic protein secretion (HUVECs [3]),HUVEC colonization and proliferation versus unmodified collagen (HUVECs [4]),cells captured in flow versus unmodified collagen (ECFCs),MSCs in captured cell population (human MSCs)
11 fold,Increased cell binding,peptide-modified collagen: soluble bovine type I collagen with SEQ ID NO: 4 covalently attached via BS^3 crosslinking reagent (SSFWDVCQGDGTCYGGGSR-{spacer-Lys}; cysteine pairing not given here; reading uncertain; also: conjugated to soluble bovine type I collagen via BS3 (site not given here)),about 3 fold,did not significantly affect cell capture,7 fold,3 fold,maintained their endothelial cell phenotype and their ability to secrete anti-thrombogenic proteins,colonize and proliferate equally,about 20 fold,
,,"SSFRFGPLGTWNYPSTDNAE (also: biotin (position not given here)) [SEQ ID NO: 16, tested biotinylated]",,,,,,,,96%
